Measurements taken from the supplement of paper PMC10627819.
≈ marks a conversion by molar mass, not a printed value.

Experiments:
[1] = test system: S. aureus DSM 20231
[2] = test system: S. aureus Newman
[3] = test system: S. pneumoniae D39V; assay: fitness (endpoint OD595 vs no drug) (fraction); higher = more growth
How it was run: (§1)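 Growth medium was TSB, LB Lennox or CY, and plates were kept at 37 °C. Inoculation was at OD595 0.01 in 384-well plates, at 30 µl per well or 55 µl for S. pneumoniae. OD595 was monitored every 30 min for 14 h and background-subtracted using the first reading. Fitness is the optical density on entering stationary phase divided by the robust mean of no-drug controls, with values capped at 1.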

[4] = test system: S. aureus DSM 20231; assay: as above
How it was run: as §1

[5] = test system: B. subtilis 168; assay: as above
How it was run: as §1

[6] = test system: S. aureus Newman; assay: as above
How it was run: as §1

[7] = test system: S. pneumoniae D39V
[8] = test system: B. subtilis 168

CC(=O)OC[C@H]1O[C@@H]([S-])[C@H](OC(C)=O)[C@@H](OC(C)=O)[C@@H]1OC(C)=O.CCP(CC)CC.[Au+] [Auranofin]
Details | MIC [µg/mL]
[1] | 0.5
[2] | 0.5

O=C(N[C@H](CO)[C@H](O)c1ccc([N+](=O)[O-])cc1)C(Cl)Cl [Chloramphenicol]
Details | fitness
[3], 0.375 µg/mL | 0.893
[3], 0.75 µg/mL | 0.722
[3], 1.5 µg/mL | 0.407
[4], 0.75 µg/mL | 0.878
[4], 1.5 µg/mL | 0.711
[4], 3 µg/mL | 0.0899
[5], 0.5 µg/mL | 0.834
[5], 1 µg/mL | 0.659
[6], 0.75 µg/mL | 0.804
[6], 1.5 µg/mL | 0.514
[6], 3 µg/mL | 0.126

Details | MIC [µg/mL]
[1] | 3.5 (≈ 10.8 µM)
[2] | 3 (≈ 9.28 µM)
[7] | 2 (≈ 6.19 µM)

CC[C@H]1OC(=O)[C@H](C)[C@@H](O[C@H]2C[C@@](C)(OC)[C@@H](O)[C@H](C)O2)[C@H](C)[C@@H](O[C@@H]2O[C@H](C)C[C@H](N(C)C)[C@H]2O)[C@](C)(OC)C[C@@H](C)C(=O)[C@H](C)[C@@H](O)[C@]1(C)O [Clarithromycin]
fitness
Details | 0.0585 µg/mL | 0.0625 µg/mL | 0.117 µg/mL | 0.125 µg/mL | 0.234 µg/mL | 0.25 µg/mL
[3] | – | 0.568 | – | 0.346 | – | 0.148
[4] | 0.94 | – | 0.691 | – | 0.0857 | –

Details | MIC [µg/mL]
[1] | 0.234 (≈ 0.313 µM)
[2] | 0.5 (≈ 0.668 µM)
[7] | 0.5 (≈ 0.668 µM)

CCC[C@@H]1C[C@@H](C(=O)N[C@@H]([C@H]2O[C@H](SC)[C@H](O)[C@@H](O)[C@H]2O)[C@H](C)Cl)N(C)C1 [Clindamycin]
Details | fitness
[3], 0.015 µg/mL | 0.869
[3], 0.03 µg/mL | 0.682
[3], 0.06 µg/mL | 0.456
[4], 0.0312 µg/mL | 0.747
[4], 0.0625 µg/mL | 0.246
[4], 0.125 µg/mL | 0.0653
[5], 0.0625 µg/mL | 0.596
[5], 0.125 µg/mL | 0.432
[5], 0.25 µg/mL | 0.393
[6], 0.0312 µg/mL | 0.775
[6], 0.0625 µg/mL | 0.432
[6], 0.125 µg/mL | 0.108

Details | MIC [µg/mL]
[1] | 0.125 (≈ 0.294 µM)
[2] | 0.125 (≈ 0.294 µM)
[7] | 0.125 (≈ 0.294 µM)
[8] | 1 (≈ 2.35 µM)

N[C@@H]1CONC1=O [Cycloserine D]
Details | fitness
[3], 2.188 µg/mL | 0.872
[3], 4.375 µg/mL | 0.81
[3], 8.75 µg/mL | 0.533
[4], 0.375 µg/mL | ≥ 1
[4], 0.75 µg/mL | ≥ 1
[4], 1.5 µg/mL | ≥ 1
[5], 0.125 µg/mL | 0.963
[5], 0.25 µg/mL | 0.948
[5], 0.5 µg/mL | 0.966
[6], 0.375 µg/mL | ≥ 1
[6], 0.75 µg/mL | ≥ 1
[6], 1.5 µg/mL | 0.983

Details | MIC [µg/mL]
[1] | 1.5 (≈ 14.7 µM)
[2] | 1.5 (≈ 14.7 µM)
[7] | 8.75 (≈ 85.7 µM)
[8] | 0.5 (≈ 4.9 µM)

O=C(O[C@@H]1Cc2c(O)cc(O)cc2O[C@@H]1c1cc(O)c(O)c(O)c1)c1cc(O)c(O)c(O)c1 [EGCG]
fitness
Details | [3] | [4] | [5] | [6]
6.25 µg/mL | – | – | 0.91 | –
12.5 µg/mL | 0.946 | 0.841 | 0.709 | 0.778
25 µg/mL | 0.964 | 0.776 | 0.34 | 0.714
50 µg/mL | 0.987 | 0.795 | – | 0.671

Details | MIC [µg/mL]
[1] | 50 (≈ 109 µM)
[2] | 50 (≈ 109 µM)
[7] | 400 (≈ 873 µM)
[8] | 50 (≈ 109 µM)

CC(=O)O[C@H]1C[C@@]2(C)[C@@H](C[C@@H](O)[C@H]3[C@@]4(C)CC[C@@H](O)[C@@H](C)[C@@H]4CC[C@@]32C)/C1=C(\CCC=C(C)C)C(=O)O [Fusidic acid]
Details | MIC [µg/mL]
[2] | 0.139 (≈ 0.269 µM)
[7] | 4 (≈ 7.74 µM)
[8] | 0.5 (≈ 0.968 µM)

C[C@@H](O)[C@H]1C(=O)N2C(C(=O)O)=C(SCCNC=N)C[C@H]12 [Imipenem]
fitness
Details | 0.005 µg/mL | 0.01 µg/mL | 0.02 µg/mL | 0.0625 µg/mL | 0.125 µg/mL | 0.25 µg/mL
[3] | 0.961 | 0.95 | 0.943 | – | – | –
[5] | – | – | – | 0.857 | 0.751 | 0.466

Details | MIC [µg/mL]
[7] | 0.062 (≈ 0.207 µM)
[8] | 0.5 (≈ 1.67 µM)

CCC[C@@H]1C[C@@H](C(=O)N[C@@H]([C@H]2O[C@H](SC)[C@H](O)[C@@H](O)[C@H]2O)[C@@H](C)O)N(C)C1 [Lincomycin]
fitness
Details | 0.1 µg/mL | 0.2 µg/mL | 0.4 µg/mL | 0.8 µg/mL | 1.6 µg/mL
[3] | – | 0.648 | 0.432 | 0.211 | –
[4] | 0.932 | 0.767 | 0.315 | – | –
[5] | 0.862 | 0.823 | 0.852 | 0.878 | 0.854

Details | MIC [µg/mL]
[1] | 0.4 (≈ 0.984 µM)
[2] | 0.4 (≈ 0.984 µM)
[7] | 1.6 (≈ 3.94 µM)

COc1c(N2C[C@@H]3CCCN[C@@H]3C2)c(F)cc2c(=O)c(C(=O)O)cn(C3CC3)c12 [Moxifloxacin]
Details | fitness
[3], 0.0037 µg/mL | 0.9
[3], 0.0075 µg/mL | 0.916
[3], 0.015 µg/mL | 0.862
[3], 0.0312 µg/mL | 0.134
[3], 0.0625 µg/mL | 0.088
[3], 0.125 µg/mL | 0.0638
[4], 0.0075 µg/mL | 0.888
[4], 0.015 µg/mL | 0.824
[4], 0.03 µg/mL | 0.665
[5], 0.0312 µg/mL | 0.0397
[5], 0.0625 µg/mL | 0.0388
[5], 0.125 µg/mL | 0.0181
[5], 2 µg/mL | 0.0291
[5], 4 µg/mL | 0.0224
[5], 8 µg/mL | 0.0114
[6], 0.0075 µg/mL | 0.748
[6], 0.015 µg/mL | 0.642
[6], 0.03 µg/mL | 0.0899

Details | MIC [µg/mL]
[1] | 0.033 (≈ 0.0822 µM)
[2] | 0.033 (≈ 0.0822 µM)
[7] | 0.25 (≈ 0.623 µM)
